From patent US20240382612A1, “BIOACTIVE CONJUGATE, PREPARATION METHOD THEREFOR AND USE THEREOF” (priority 2017, published 2024)
Read-outs that look alike come from different tables or passages of the source. Non-standard residues stand in square brackets, D forms with d. Residues, ends and D or L forms follow the SMILES beside them. ξ: configuration not given here. *: point of attachment. Dolaproine = CO[C@@H]([C@@H]1CCCN1)[C@@H](C)C(=O)O; Dil = CC[C@H](C)[C@H](NC)[C@@H](CC(=O)O)OC; NH(4-aminobenzyl) = Nc1ccc(CN*)cc1; NMe2Val = CC(C)[C@@H](C(=O)*)N(C)C; β3hF = N[C@H](CC(=O)O)Cc1ccccc1; ξF = NC(Cc1ccccc1)C(=O)O

Legend:
[1] = tested on: MDA-MB-468 (Trop-2 positive cell lines); test: In-vitro cell activity test (CCK8), MDA-MB-468; assay type: cell-based; settings: Homo sapiens, 96 h; MDA-MB-468, 7500 cells/well, 4 days; read-out: EC50 (nM), killing effects of bioactive molecules on cells
Description: (§1) First, tumor cells MDA-MB-468 (Trop-2 positive cell lines) and HCC1806 (Trop-2 positive cell lines) were cultured. The bioactive molecules and ADC molecules disclosed in the disclosure were co-cultured with the tumor cells, then a CCK8 reagent (Dojindo Molecular Technologies, Inc., Cat: CK04, Lot:JJ744) was added. The activity of dehydrogenase in mitochondria was tested through readings (detection wave length was 450 nm) from a microplate reader (manufacturer: Molecular Devices, model: SpectraMax M2) so as to evaluate the inhibitory effect of ADC on cell proliferation.
(§2) In-vitro cell activity testing: bioactive molecules or ADCs were diluted (12 concentration gradients) with corresponding test media (containing 2% FBS). The tumor cells were trypsinized with trypsin by a conventional method, collected and counted, and then resuspended with corresponding test media (containing 2% FBS). Diluted bioactive molecules or ADCs were added to a 96-well plate, and then cells were added. 20 μL of the CCK8 reagent was added to each well and reacted for 4 h, and readings (detection wavelength was 450 nm) were taken from a microplate reader.

[2] = tested on: HCC1806 (Trop-2 positive cell lines); test: In-vitro cell activity test (CCK8), HCC1806; assay type: cell-based; settings: Homo sapiens, read-out: EC50 (nM), killing effects of bioactive molecules on cells
Description: as §1, §2

[3] = tested on: human gastric cancer cell line NCI-N87; test: Experimental example 1: NCI-N87 gastric cancer subcutaneous xenograft, tumor inhibition; assay type: in vivo, Balb/c-nu mice; settings: D21 after administration; IV, BIW×3W; BT001021 and Immu-132 3 mg/kg, toxins T-030 and SN-38 equimolar to ADC
Description: Tumor-bearing mice (6 mice/group) with tumor volume of 100-200 mm^3 were randomly grouped (the number of groups was determined according to sample number). The administration volume was 10 ml/kg, and the administration route was tail intravenous injection. The mice were administered twice a week, and tumor diameter was measured with a vernier caliper, and tumor volume was calculated based on the following calculation formula: V=0.5 a×b^2, wherein a and b stand for the long diameter and short diameter of a tumor respectively. Animal deaths were observed and recorded every day.
The tumor growth inhibition rate TGI (%) was calculated from the following formula to evaluate tumor inhibitory effect of antibody drug conjugates:
Specifically, in the experimental examples 1 and 2, tumor-bearing mice models were constructed by subcutaneous xenograft of a human gastric cancer cell line NCI-N87 or a human triple negative breast cancer cell line HCC1806. After the tumor volume was about 100 mm^3, the mice were randomly grouped, and intravenously administered with BT001021 twice a week for a total of 6 times. Changes in tumor volume and animal body weight were measured twice a week to evaluate the efficacy (tumor inhibitory effect) of the antibody drug conjugate on tumor-bearing mice.
NCI-N87 cells were cultured in a 1640 culture medium containing 10% fetal bovine serum at 37° C. and 5% CO2. NCI-N87 cells in the exponential growth stage were collected, resuspended in PBS to a suitable concentration, and inoculated subcutaneously into female Balb/c-nu mice to construct gastric cancer models. When the mean tumor volume was about 90 mm^3, the mice were randomly grouped into a physiological saline group, a BT001021 (3 mg/kg, IV, BIW×3W) group, a positive drug Immu-132 (3 mg/kg, IV, BIW×3W) group, a T030 group and a SN38 group according to the tumor size, followed by tail intravenous injection of corresponding drugs twice a week for a total of 6 times. After administration, the tumor volume and body weight of the mice were observed and measured regularly.

[4] = Experimental example 6: pharmacokinetics of BT001021 and T-030 in NCI-N87 tumor-bearing mice (T-030 in tumor and serum, LC-MS/MS); assay type: in vivo, Balb/c-nu mice; settings: T-030 0.23 mg/kg, single dose; for Cmax / AUC(0-t) / MRT inf / half-life: iv, 0.23 mg/kg; for AUC(0-t): read-out: AUClast (h*ng/ml) of T-030; for MRT inf: read-out: MRTINF (h) of T-030; for half-life: read-out: T1/2 (h) of T-030 (converted)
Text: Experimental example 6 was used to evaluate pharmacokinetics of antibody drug conjugates and bioactive molecules in vivo. Specifically, in the experiment, a tumor-bearing mice model was constructed by subcutaneous xenograft of a human gastric cancer cell line NCI-N87 to Balb/c-nu mice. After the tumor volume was 100-200 mm^3, the mice were randomly grouped, and intravenously administrated with a single dose of BT001021 and T-030. The concentration of the T-030 in tumor tissues and serum was determined to evaluate the pharmacokinetics in vivo of the antibody conjugate BT001021 and the bioactive molecule T-030 in the tumor-bearing mice.
Tumor-bearing mice (4 mice/group) with tumor volume of 100-200 mm^3 were randomly grouped (the number of groups was determined according to sample number), and the administration route was single tail intravenous injection.
NCI-N87 cells were cultured in a 1640 culture medium containing 10% heat-inactivated fetal bovine serum at 37° C. and 5% CO2. NCI—N87 cells in the exponential growth stage were collected, resuspended in PBS to a suitable concentration, and inoculated subcutaneously into Balb/c-nu mice to construct xenograft models of […]. When the mean tumor volume was about 100-200 mm^3, the mice were randomly grouped into a physiological saline group, a T-030 (0.23 mg/kg, IV, single dose) group and a BT001021 (10 mg/kg, IV, single dose) group according to the tumor size, followed by tail intravenous injection of corresponding drugs. For the T-030 group, serum and tumor tissues were collected 1 h, 2 h, 4 h, 8 h, 24 h and 72 h after administration (T-030 was not detected in the serum and tumor tissues 72 h after administration, therefore, serum and tumor tissues were not collected 168 h after administration). For BT001021 group, serum and tumor tissues were collected 1 h, 2 h, 4 h, 8 h, 24 h, 72 h and 168 h after administration to test the concentration of the T-030 in the serum and the tumors by LC-MS/MS. The administration dose of the T-030 (0.23 mg/kg) was converted to isomolar dose (10 mg/kg) of BT001021.

[5] = Balb/c-nu, mouse, in vivo, Serum
[6] = Balb/c-nu, mouse, in vivo, Tumor

CC[C@H](C)[C@@H]([C@@H](CC(=O)N1CCC[C@H]1[C@H](OC)[C@@H](C)C(=O)NC(Cc1ccccc1)C(=O)NCc1ccc(N)cc1)OC)N(C)C(=O)[C@@H](NC(=O)[C@H](C(C)C)N(C)C)C(C)C (stereo partly drawn) [T001, (2S)—N-((3R,4S,5S)-1-((2S)-2-((1R,2R)-3-((1-((4-aminobenzyl)amino)-1-oxo-3-phenylpropan-2-yl)amino)-1-methoxy-2-methyl-3-propionyl)pyrrolidin-1-yl)-3-methoxy-5-methyl-1-heptanoyl-4-yl)-2-((S)-2-(dimethylamino)-3-methylbutyrylamino)-N,3-dimethylbutyramide] (NMe2Val-V[Dil][Dolaproine][ξF]-{NH(4-aminobenzyl)})
EC50 [1]: 1.13 nM

CC[C@H](C)[C@@H]([C@@H](CC(=O)N1CCC[C@H]1[C@H](OC)[C@@H](C)C(=O)N[C@H](Cc1ccccc1)C(=O)NCc1ccc(N)cc1)OC)N(C)C(=O)[C@@H](NC(=O)[C@H](C(C)C)N(C)C)C(C)C [T012] (NMe2Val-V[Dil][Dolaproine][dF]-{NH(4-aminobenzyl)})
EC50 [1]: 1.62 nM

CC[C@H](C)[C@@H]([C@@H](CC(=O)N1CCC[C@H]1[C@H](OC)[C@@H](C)C(=O)N[C@H](CC(=O)NCc1ccc(N)cc1)Cc1ccccc1)OC)N(C)C(=O)[C@@H](NC(=O)[C@H](C(C)C)N(C)C)C(C)C [T013] (NMe2Val-V[Dil][Dolaproine][β3hF]-{NH(4-aminobenzyl)})
EC50 [1]: 0.414 nM

CC[C@@]1(O)C(=O)OCc2c1cc1n(c2=O)Cc2c-1nc1ccccc1c2CCN(C(C)=O)C(C)C [T-028, (S)—N-(2-(4-ethyl-4-hydroxyl-3,14-dione-3,4,12,14-tetrahydro-1H-pyrano [3′,4′,6,7]indolizino[1,2-b]quinolin-11-yl)ethyl)-N-isopropylacetamide]
EC50 ([2]; HCC1806, 72 h): 6.02 nM

CC[C@@]1(O)C(=O)OCc2c1cc1n(c2=O)Cc2c-1nc1ccccc1c2CCN(C(C)C)S(C)(=O)=O [T-030, (S)—N-(2-(4-ethyl-4-hydroxyl-3,14-dione-3,4,12,14-tetrahydro-1H-pyrano[3′,4′,6,7]indolizino[1,2-b]quinolin-11-yl)ethyl)-N-isopropylmethanesulfonamide]
EC50 ([2]; 72 h, HCC1806, 7500 cells/well, 3 days): 6.73 nM | Tumor Volume (mm^3) (x ± S) [3]: 339.02 ± 152.80 mm^3 | Tumor growth inhibition rate (%) [3]: 21.48% | T-030 in the serum and tumor tissues ([4]; 72 h after administration, IV): not detected | Cmax [4, 5]: 1.81 ng/mL | AUC(0-t) [4, 5]: 5.58 ng·h/mL | MRT inf [4, 5]: 1.11 h | half-life [4, 5]: 1.76 h | Cmax [4, 6]: 1.2 ng/mL | AUC(0-t) [4, 6]: 3.85 ng·h/mL | MRT inf [4, 6]: 1.52 h | half-life [4, 6]: 2.55 h | Tmax ([4]; Balb/c-nu, mouse, in vivo, Tumor, IV): 1 h

CC[C@H](C)[C@@H]([C@@H](CC(=O)N1CCC[C@H]1[C@H](OC)[C@@H](C)C(=O)N[C@@H](Cc1ccccc1)C(=O)NCc1ccc(N)cc1)OC)N(C)C(=O)[C@@H](NC(=O)[C@H](C(C)C)N(C)C)C(C)C [T011] (NMe2Val-V[Dil][Dolaproine]F-{NH(4-aminobenzyl)})
EC50 [1]: 0.211 nM

CCc1c2c(nc3ccc(O)cc13)-c1cc3c(c(=O)n1C2)COC(=O)[C@]3(O)CC [SN-38]
Tumor Volume (mm^3) (x ± S) [3]: 416.11 ± 195.15 mm^3 | Tumor growth inhibition rate (%) [3]: −2.75%

CC[C@H](C)[C@@H]([C@@H](CC(=O)N1CCC[C@H]1[C@H](OC)[C@@H](C)C(=O)NCC(=O)NCc1ccc(N)cc1)OC)N(C)C(=O)[C@@H](NC(=O)[C@H](C(C)C)N(C)C)C(C)C [T015] (NMe2Val-V[Dil][Dolaproine]G-{NH(4-aminobenzyl)})
EC50 [1]: 7.43 nM
